In ChEMBL document CHEMBL4507317, “Data for DCP probe BAY-899” (2021):

How the values were obtained:
[1] = target: Tyrosine-protein kinase ABL1 (Homo sapiens) (UniProt P00519); details: Compound concentration 1000.0 nM
[2] = target: Tyrosine-protein kinase ABL1 (Homo sapiens) (UniProt P00519); details: Compound concentration 1000.0 nM; remark: listed apart in the source
[3] = target: NUAK family SNF1-like kinase 1 (Homo sapiens) (UniProt O60285); details: Compound concentration 1000.0 nM
[4] = target: Serine/threonine-protein kinase BRSK2 (Homo sapiens) (UniProt Q8IWQ3); details: Compound concentration 1000.0 nM
[5] = target: Calcium/calmodulin-dependent protein kinase kinase 1 (Homo sapiens) (UniProt Q8N5S9); details: Compound concentration 1000.0 nM
[6] = target: Calcium/calmodulin-dependent protein kinase kinase 2 (Homo sapiens) (UniProt Q96RR4); details: Compound concentration 1000.0 nM
[7] = target: Serine/threonine-protein kinase Chk2 (Homo sapiens) (UniProt O96017); details: Compound concentration 1000.0 nM
[8] = target: Tyrosine-protein kinase CSK (Homo sapiens) (UniProt P41240); details: Compound concentration 1000.0 nM
[9] = target: Casein kinase I isoform delta (Homo sapiens) (UniProt P48730); details: Compound concentration 1000.0 nM
[10] = target: Serine/threonine-protein kinase DCLK1 (Homo sapiens) (UniProt O15075); details: Compound concentration 1000.0 nM
[11] = target: Epidermal growth factor receptor (Homo sapiens) (UniProt P00533); details: Compound concentration 1000.0 nM
[12] = test system: Epidermal growth factor receptor (Homo sapiens), P00533 [G719C]; details: Compound concentration 1000.0 nM
[13] = test system: Epidermal growth factor receptor (Homo sapiens), P00533 [G719S]; details: Compound concentration 1000.0 nM
[14] = target: Ephrin type-A receptor 8 (Homo sapiens) (UniProt P29322); details: Compound concentration 1000.0 nM
[15] = target: Ephrin type-B receptor 3 (Homo sapiens) (UniProt P54753); details: Compound concentration 1000.0 nM
[16] = target: Receptor tyrosine-protein kinase erbB-4 (Homo sapiens) (UniProt Q15303); details: Compound concentration 1000.0 nM
[17] = target: Receptor-type tyrosine-protein kinase FLT3 (Homo sapiens) (UniProt P36888); details: Compound concentration 1000.0 nM
[18] = target: Homeodomain-interacting protein kinase 1 (Homo sapiens) (UniProt Q86Z02); details: Compound concentration 1000.0 nM
[19] = target: Hormonally up-regulated neu tumor-associated kinase (Homo sapiens) (UniProt P57058); details: Compound concentration 1000.0 nM
[20] = target: Inhibitor of nuclear factor kappa-B kinase subunit epsilon (Homo sapiens) (UniProt Q14164); details: Compound concentration 1000.0 nM
[21] = target: Insulin receptor-related protein (Homo sapiens) (UniProt P14616); details: Compound concentration 1000.0 nM
[22] = target: Leukocyte tyrosine kinase receptor (Homo sapiens) (UniProt P29376); details: Compound concentration 1000.0 nM
[23] = target: Mitogen-activated protein kinase kinase kinase 10 (Homo sapiens) (UniProt Q02779); details: Compound concentration 1000.0 nM
[24] = target: Mitogen-activated protein kinase kinase kinase 11 (Homo sapiens) (UniProt Q16584); details: Compound concentration 1000.0 nM
[25] = target: Serine/threonine-protein kinase MRCK beta (Homo sapiens) (UniProt Q9Y5S2); details: Compound concentration 1000.0 nM
[26] = target: Serine/threonine-protein kinase Nek2 (Homo sapiens) (UniProt P51955); details: Compound concentration 1000.0 nM
[27] = target: Serine/threonine-protein kinase PAK 4 (Homo sapiens) (UniProt O96013); details: Compound concentration 1000.0 nM
[28] = target: Interferon-induced, double-stranded RNA-activated protein kinase (Homo sapiens) (UniProt P19525); details: Compound concentration 1000.0 nM
[29] = target: Serine/threonine-protein kinase RIO3 (Homo sapiens) (UniProt O14730); details: Compound concentration 1000.0 nM
[30] = target: Ribosomal protein S6 kinase alpha-5 (Homo sapiens) (UniProt O75582); details: Compound concentration 1000.0 nM
[31] = target: Ribosomal protein S6 kinase alpha-1 (Homo sapiens) (UniProt Q15418); details: Compound concentration 1000.0 nM
[32] = target: Serine/threonine-protein kinase 33 (Homo sapiens) (UniProt Q9BYT3); details: Compound concentration 1000.0 nM
[33] = target: Serine/threonine-protein kinase 35 (Homo sapiens) (UniProt Q8TDR2); details: Compound concentration 1000.0 nM
[34] = target: Non-receptor tyrosine-protein kinase TYK2 (Homo sapiens) (UniProt P29597); details: Compound concentration 1000.0 nM
[35] = target: Tyrosine-protein kinase receptor TYRO3 (Homo sapiens) (UniProt Q06418); details: Compound concentration 1000.0 nM
[36] = target: Vascular endothelial growth factor receptor 2 (Homo sapiens) (UniProt P35968); details: Compound concentration 1000.0 nM
[37] = target: Serine/threonine-protein kinase VRK2 (Homo sapiens) (UniProt Q86Y07); details: Compound concentration 1000.0 nM
[38] = target: Serine/threonine-protein kinase WNK1 (Homo sapiens) (UniProt Q9H4A3); details: Compound concentration 1000.0 nM
[39] = target: T1, Muscarinic acetylcholine receptor M1 (Homo sapiens) (UniProt P11229); details: Compound concentration 10.0 uM
T1 sequence (whole entry): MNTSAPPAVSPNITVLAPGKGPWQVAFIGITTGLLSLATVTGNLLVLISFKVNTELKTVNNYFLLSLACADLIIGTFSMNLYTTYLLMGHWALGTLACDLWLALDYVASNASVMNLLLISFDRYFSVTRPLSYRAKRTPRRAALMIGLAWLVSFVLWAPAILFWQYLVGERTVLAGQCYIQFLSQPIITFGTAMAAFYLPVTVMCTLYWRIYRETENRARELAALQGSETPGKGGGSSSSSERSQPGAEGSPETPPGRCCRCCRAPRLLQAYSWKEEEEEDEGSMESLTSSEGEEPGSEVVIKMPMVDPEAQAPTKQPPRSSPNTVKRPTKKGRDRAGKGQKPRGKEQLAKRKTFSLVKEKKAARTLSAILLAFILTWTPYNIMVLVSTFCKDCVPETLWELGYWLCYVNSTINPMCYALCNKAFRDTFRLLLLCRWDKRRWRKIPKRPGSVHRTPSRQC

Tyrosine-protein kinase ABL1 (Homo sapiens), sequence (P00519 whole entry): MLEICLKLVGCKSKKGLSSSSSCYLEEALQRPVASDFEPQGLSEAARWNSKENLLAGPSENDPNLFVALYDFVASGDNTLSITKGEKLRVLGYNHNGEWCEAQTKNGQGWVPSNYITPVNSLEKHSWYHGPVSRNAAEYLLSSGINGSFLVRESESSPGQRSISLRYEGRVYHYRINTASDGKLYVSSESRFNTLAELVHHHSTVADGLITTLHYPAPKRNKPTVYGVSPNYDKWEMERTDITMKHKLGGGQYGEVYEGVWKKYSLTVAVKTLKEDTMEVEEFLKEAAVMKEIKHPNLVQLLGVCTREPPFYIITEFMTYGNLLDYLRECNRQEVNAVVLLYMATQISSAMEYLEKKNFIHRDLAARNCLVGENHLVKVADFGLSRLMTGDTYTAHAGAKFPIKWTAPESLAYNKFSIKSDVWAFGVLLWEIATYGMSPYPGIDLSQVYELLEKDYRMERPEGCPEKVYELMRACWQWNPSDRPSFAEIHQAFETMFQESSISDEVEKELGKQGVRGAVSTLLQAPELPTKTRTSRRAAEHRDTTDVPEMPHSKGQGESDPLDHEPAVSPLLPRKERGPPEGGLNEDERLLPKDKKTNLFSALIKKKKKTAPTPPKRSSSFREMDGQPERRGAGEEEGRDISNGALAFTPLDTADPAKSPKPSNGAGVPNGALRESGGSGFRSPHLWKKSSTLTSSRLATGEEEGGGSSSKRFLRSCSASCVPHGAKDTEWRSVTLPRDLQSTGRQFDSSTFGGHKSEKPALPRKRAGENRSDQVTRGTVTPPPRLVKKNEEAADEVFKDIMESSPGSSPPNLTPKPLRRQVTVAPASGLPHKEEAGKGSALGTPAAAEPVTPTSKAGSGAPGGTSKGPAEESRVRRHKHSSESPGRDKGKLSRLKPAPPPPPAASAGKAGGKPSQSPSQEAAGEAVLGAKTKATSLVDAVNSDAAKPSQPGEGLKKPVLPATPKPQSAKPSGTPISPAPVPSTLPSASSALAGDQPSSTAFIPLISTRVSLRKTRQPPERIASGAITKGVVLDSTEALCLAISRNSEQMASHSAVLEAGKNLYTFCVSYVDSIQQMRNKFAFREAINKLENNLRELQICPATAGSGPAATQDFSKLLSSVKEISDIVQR
Leukocyte tyrosine kinase receptor (Homo sapiens), sequence (P29376 whole entry): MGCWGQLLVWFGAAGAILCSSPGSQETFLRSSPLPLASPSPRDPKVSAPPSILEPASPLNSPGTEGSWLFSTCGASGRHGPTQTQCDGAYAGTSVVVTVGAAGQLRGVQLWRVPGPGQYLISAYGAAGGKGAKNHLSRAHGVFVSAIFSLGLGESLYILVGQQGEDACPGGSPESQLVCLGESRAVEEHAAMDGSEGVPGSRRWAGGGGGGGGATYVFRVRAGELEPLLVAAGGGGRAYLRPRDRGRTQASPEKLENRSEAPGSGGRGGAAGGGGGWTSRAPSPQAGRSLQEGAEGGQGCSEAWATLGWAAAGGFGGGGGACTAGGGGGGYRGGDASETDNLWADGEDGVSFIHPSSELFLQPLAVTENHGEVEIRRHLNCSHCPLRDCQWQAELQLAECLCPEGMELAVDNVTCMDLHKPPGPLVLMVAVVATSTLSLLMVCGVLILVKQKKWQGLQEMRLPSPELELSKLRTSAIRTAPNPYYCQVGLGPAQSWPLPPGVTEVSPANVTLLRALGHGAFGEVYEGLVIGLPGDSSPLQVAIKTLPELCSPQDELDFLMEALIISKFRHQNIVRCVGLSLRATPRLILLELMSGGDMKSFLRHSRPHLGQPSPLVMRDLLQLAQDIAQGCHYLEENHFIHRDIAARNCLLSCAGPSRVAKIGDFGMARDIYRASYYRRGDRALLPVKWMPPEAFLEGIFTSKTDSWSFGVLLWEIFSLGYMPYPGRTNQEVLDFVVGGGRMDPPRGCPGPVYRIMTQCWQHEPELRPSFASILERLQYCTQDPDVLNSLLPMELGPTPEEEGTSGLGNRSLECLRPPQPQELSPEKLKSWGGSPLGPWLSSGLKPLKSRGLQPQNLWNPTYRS
Ephrin type-B receptor 3 (Homo sapiens), sequence (P54753 whole entry): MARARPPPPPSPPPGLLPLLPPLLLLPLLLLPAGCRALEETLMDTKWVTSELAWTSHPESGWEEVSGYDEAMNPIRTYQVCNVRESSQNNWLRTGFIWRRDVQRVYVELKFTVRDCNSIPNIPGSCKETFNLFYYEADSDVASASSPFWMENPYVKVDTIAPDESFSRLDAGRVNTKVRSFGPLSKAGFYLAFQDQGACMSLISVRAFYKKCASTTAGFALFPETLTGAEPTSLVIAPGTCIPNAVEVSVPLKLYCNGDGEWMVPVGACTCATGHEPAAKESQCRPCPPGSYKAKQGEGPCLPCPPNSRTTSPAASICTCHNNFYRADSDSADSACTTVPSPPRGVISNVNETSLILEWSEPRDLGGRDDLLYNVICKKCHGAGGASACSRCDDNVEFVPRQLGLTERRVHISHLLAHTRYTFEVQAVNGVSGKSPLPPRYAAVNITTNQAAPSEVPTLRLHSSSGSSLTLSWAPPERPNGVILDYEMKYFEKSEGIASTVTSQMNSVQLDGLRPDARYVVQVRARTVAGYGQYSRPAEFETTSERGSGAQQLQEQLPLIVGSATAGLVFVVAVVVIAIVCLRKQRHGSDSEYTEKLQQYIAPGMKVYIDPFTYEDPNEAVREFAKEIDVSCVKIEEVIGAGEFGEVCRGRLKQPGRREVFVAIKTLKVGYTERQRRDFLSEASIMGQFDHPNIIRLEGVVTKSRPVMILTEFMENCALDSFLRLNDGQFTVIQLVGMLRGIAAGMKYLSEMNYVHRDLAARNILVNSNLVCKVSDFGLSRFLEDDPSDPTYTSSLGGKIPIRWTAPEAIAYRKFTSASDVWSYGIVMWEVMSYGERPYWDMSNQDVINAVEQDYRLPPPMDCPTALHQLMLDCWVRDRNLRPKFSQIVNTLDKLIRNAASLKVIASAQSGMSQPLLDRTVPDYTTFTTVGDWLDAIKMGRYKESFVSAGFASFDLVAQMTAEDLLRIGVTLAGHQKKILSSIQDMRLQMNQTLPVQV
Receptor-type tyrosine-protein kinase FLT3 (Homo sapiens), sequence (P36888 whole entry): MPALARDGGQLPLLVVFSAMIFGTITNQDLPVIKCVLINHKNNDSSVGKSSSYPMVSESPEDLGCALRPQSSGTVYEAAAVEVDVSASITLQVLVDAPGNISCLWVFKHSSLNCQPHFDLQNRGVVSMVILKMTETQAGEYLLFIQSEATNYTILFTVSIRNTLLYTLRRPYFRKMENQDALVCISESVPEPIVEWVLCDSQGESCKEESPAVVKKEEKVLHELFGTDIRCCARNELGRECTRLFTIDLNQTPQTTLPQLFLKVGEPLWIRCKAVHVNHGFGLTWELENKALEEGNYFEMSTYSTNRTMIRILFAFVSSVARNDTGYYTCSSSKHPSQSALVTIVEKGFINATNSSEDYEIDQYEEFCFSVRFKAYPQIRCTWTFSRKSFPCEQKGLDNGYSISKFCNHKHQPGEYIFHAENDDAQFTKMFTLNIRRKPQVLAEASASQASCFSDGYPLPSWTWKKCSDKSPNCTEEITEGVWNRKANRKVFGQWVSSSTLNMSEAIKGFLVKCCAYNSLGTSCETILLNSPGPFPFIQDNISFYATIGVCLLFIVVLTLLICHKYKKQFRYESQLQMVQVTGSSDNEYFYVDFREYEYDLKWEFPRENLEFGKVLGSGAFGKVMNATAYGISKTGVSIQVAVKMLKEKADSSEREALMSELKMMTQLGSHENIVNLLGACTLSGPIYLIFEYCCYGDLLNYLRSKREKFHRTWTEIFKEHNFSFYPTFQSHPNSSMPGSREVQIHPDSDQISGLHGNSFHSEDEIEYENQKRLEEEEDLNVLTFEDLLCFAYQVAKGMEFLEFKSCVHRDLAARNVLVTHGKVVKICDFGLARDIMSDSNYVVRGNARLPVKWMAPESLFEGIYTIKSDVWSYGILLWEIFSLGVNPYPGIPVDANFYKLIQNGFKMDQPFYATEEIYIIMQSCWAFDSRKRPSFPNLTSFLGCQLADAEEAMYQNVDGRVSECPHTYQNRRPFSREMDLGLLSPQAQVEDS
Serine/threonine-protein kinase VRK2 (Homo sapiens), sequence (Q86Y07 whole entry): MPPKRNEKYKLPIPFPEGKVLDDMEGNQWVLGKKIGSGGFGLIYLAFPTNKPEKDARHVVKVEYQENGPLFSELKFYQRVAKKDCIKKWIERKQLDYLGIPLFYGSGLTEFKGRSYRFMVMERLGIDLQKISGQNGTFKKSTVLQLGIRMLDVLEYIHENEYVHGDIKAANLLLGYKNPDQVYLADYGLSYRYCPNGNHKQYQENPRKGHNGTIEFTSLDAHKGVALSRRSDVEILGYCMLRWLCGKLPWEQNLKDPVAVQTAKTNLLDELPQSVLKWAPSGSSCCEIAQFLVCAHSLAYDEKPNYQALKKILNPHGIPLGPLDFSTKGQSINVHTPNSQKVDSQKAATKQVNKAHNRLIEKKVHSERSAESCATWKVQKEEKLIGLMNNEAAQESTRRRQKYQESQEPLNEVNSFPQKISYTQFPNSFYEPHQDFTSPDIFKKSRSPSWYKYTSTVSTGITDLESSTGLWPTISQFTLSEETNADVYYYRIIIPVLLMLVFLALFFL
Serine/threonine-protein kinase RIO3 (Homo sapiens), sequence (O14730 whole entry): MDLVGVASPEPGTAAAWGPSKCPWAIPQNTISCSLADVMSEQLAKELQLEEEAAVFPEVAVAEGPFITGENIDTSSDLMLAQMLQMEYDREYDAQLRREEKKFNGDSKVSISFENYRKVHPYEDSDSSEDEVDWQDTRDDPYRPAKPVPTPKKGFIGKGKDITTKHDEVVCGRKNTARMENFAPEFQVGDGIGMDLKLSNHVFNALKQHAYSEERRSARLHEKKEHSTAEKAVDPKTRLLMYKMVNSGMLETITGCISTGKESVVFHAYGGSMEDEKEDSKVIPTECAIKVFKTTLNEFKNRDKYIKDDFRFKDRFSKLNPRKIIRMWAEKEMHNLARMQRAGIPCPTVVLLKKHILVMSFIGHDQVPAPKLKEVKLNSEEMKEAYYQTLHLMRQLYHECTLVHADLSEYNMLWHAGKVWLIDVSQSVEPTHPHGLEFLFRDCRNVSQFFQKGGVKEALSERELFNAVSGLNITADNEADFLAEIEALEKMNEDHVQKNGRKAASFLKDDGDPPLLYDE

O=C(Nc1ccc(Oc2ccc(F)cc2)cc1)N1CCc2ncccc2[C@H]1c1ccc(F)cc1 [BAY-897]
inactive: residual activity [1] 100% | residual activity [2] 100% | residual activity [3] 92% | residual activity [4] 95% | residual activity [5] 99% | residual activity [6] 100% | residual activity [7] 94% | residual activity [8] 100% | residual activity [9] 90% | residual activity [10] 100% | residual activity [11] 100% | residual activity [12] 73% | residual activity [13] 74% | residual activity [14] 92% | residual activity [15] 100% | residual activity [16] 82% | residual activity [17] 77% | residual activity [18] 96% | residual activity [19] 99% | residual activity [20] 89% | residual activity [21] 94% | residual activity [22] 86% | residual activity [23] 100% | residual activity [24] 78% | residual activity [25] 88% | residual activity [26] 93% | residual activity [27] 94% | residual activity [28] 100% | residual activity [29] 96% | residual activity [30] 95% | residual activity [31] 79% | residual activity [32] 50% | residual activity [33] 80% | residual activity [34] 95% | residual activity [35] 99% | residual activity [36] 100% | residual activity [37] 97% | residual activity [38] 96% | inhibition [39] -2.98%

O=C(Nc1cnc(Oc2ccc(F)cc2)nc1)N1CCc2ncccc2[C@@H]1c1ccc(F)cc1 [BAY-899]
inactive: residual activity [1] 93% | residual activity [2] 94% | residual activity [3] 95% | residual activity [4] 89% | residual activity [5] 92% | residual activity [6] 93% | residual activity [7] 92% | residual activity [8] 100% | residual activity [9] 100% | residual activity [10] 83% | residual activity [11] 100% | residual activity [12] 76% | residual activity [13] 72% | residual activity [14] 88% | residual activity [15] 100% | residual activity [16] 97% | residual activity [17] 84% | residual activity [18] 70% | residual activity [19] 100% | residual activity [20] 98% | residual activity [21] 84% | residual activity [22] 93% | residual activity [23] 77% | residual activity [24] 83% | residual activity [25] 73% | residual activity [26] 92% | residual activity [27] 82% | residual activity [28] 73% | residual activity [29] 89% | residual activity [30] 85% | residual activity [31] 71% | residual activity [32] 69% | residual activity [33] 71% | residual activity [34] 97% | residual activity [35] 100% | residual activity [36] 88% | residual activity [37] 100% | residual activity [38] 100% | inhibition [39] 7.56%
